Active and inactive are the calls of the source. No cut-off for these calls is given here. Non-standard residues stand in square brackets, D forms with d. Residues, ends and D or L forms follow the SMILES beside them. Sar = CNCC(=O)O
Biological target: Furin (Homo sapiens, UniProt P09958)
Details: not given

Furin, sequence (P09958 whole entry): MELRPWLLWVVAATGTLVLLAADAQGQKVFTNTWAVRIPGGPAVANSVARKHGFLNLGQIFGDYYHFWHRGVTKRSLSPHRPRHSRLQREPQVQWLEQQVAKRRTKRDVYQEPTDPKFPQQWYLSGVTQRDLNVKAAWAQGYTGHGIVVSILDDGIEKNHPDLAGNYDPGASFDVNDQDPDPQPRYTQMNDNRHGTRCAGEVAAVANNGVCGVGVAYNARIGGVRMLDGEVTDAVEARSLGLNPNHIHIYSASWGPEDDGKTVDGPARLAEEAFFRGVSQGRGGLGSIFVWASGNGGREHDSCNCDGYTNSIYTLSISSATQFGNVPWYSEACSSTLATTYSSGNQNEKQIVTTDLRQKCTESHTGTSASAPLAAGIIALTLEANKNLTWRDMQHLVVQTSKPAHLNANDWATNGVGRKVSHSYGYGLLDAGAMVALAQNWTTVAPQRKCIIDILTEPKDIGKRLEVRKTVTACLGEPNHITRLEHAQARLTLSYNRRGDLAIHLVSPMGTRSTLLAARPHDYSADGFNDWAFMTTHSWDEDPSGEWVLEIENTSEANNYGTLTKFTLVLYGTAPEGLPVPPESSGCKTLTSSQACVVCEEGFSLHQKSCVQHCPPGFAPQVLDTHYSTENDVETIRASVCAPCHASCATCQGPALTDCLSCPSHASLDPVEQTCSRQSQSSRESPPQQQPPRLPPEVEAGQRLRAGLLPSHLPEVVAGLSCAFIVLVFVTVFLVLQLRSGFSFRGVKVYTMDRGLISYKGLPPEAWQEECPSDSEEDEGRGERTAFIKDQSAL

| Molecule | Ki |
| --- | --- |
| C[C@H](NC(=O)[C@H](CCCCN)NC(=O)[C@H](CCCCN)NC(=O)[C@H](CCCN=C(N)N)NC(=O)[C@H](CCCN=C(N)N)NC(=O)[C@H](CCCN=C(N)N)NC(=O)[C@H](CCC(=O)O)NC(=O)[C@H](CCCN=C(N)N)NC(=O)[C@@H]1CCCN1C(=O)[C@@H](N)[C@@H](C)O)C(=O)N(C)CC(=O)O (H-TPRERRRKKA[Sar]-OH) | > 100 nM |
| C[C@@H](O)[C@H](N)C(=O)N1CCC[C@H]1C(=O)N[C@@H](CCCNC(=N)N)C(=O)N[C@@H](CCC(=O)O)C(=O)N[C@@H](CCCNC(=N)N)C(=O)N[C@@H](CCCNC(=N)N)C(=O)N[C@@H](CCCNC(=N)N)C(=O)N[C@@H](CCCCN)C(=O)N[C@@H](CCCCN)C(=O)N[C@@H](CCCNC(=N)N)C(=O)N(C)CC(=O)O (H-TPRERRRKKR[Sar]-OH) | > 100 nM |
| H-AAAERRRKKR-OH | > 100 nM |
| H-AAAERRRKKRG-OH | > 100 nM |
| H-AAAERRRKKRV-OH | > 100 nM |
| H-AARERRRKKR-OH | > 100 nM |
| H-AARERRRKKRG-OH | > 100 nM |
| H-AARERRRKKRV-OH | > 100 nM |
| H-APRERRRKKR-OH | > 100 nM |
| H-APRERRRKKRG-OH | > 100 nM |
| H-APRERRRKKRV-OH | > 100 nM |
| H-GAGAGATPQRARRRKKRW-OH | 127 nM |
| H-GAGAGATPRARRRKKRF-OH | 56 nM |
| H-GAGAGATPRARRRKKRT-OH | 47 nM |
| H-GAGAGATPRARRRKKRY-OH | 57 nM |
| H-GGGGGGTPQRARRRKKRW-OH | 88 nM |
| H-GGGGGGTPRARRRKKRF-OH | 45 nM |
| H-GGGGGGTPRARRRKKRT-OH | 66 nM |
| H-GGGGGGTPRARRRKKRY-OH | 54 nM |
| H-GGGTPQRARRRKKRW-OH | 67 nM |
| H-GGGTPRARRRKKRF-OH | 67 nM |
| H-GGGTPRARRRKKRT-OH | 39 nM |
| H-GGGTPRARRRKKRY-OH | 42 nM |
| H-TAAERRRKKR-OH | > 100 nM |
| H-TAAERRRKKRG-OH | > 100 nM |
| H-TAAERRRKKRV-OH | > 100 nM |

| Molecule | Ki |
| --- | --- |
| H-TARERRRKKR-OH | > 100 nM |
| H-TARERRRKKRG-NH2 | > 100 nM |
| H-TARERRRKKRG-OH | > 100 nM |
| H-TARERRRKKRV-OH | > 100 nM |
| H-TPAAARRKKR-OH | > 100 nM |
| H-TPAAARRKKRG-OH | > 100 nM |
| H-TPAAARRKKRV-OH | > 100 nM |
| H-TPAARRRKKR-OH | > 100 nM |
| H-TPAARRRKKRG-OH | > 100 nM |
| H-TPAARRRKKRV-OH | > 100 nM |
| H-TPAERRRKKR-OH | > 100 nM |
| H-TPAERRRKKRG-NH2 | > 100 nM |
| H-TPAERRRKKRG-OH | > 100 nM |
| H-TPAERRRKKRV-OH | > 100 nM |
| H-TPQRARRRKKRA-OH | 115 nM |
| H-TPQRARRRKKRC-OH | > 100 nM |
| H-TPQRARRRKKRD-OH | 50 nM |
| H-TPQRARRRKKRE-OH | 103 nM |
| H-TPQRARRRKKRH-OH | > 100 nM |
| H-TPQRARRRKKRI-OH | > 100 nM |
| H-TPQRARRRKKRL-OH | > 100 nM |
| H-TPQRARRRKKRM-OH | 58 nM |
| H-TPQRARRRKKRN-OH | > 100 nM |
| H-TPQRARRRKKRP-OH | > 100 nM |
| H-TPQRARRRKKRQ-OH | > 100 nM |
| H-TPQRARRRKKRS-OH | > 100 nM |

| Molecule | Ki |
| --- | --- |
| H-TPQRARRRKKRV-OH | 48 nM |
| H-TPQRDRRRKKRG-OH | > 100 nM |
| H-TPQRFRRRKKRG-OH | > 100 nM |
| H-TPQRGRRRKKRG-OH | > 100 nM |
| H-TPQRHRRRKKRG-OH | > 100 nM |
| H-TPQRIRRRKKRG-OH | > 100 nM |
| H-TPQRNRRRKKRG-OH | > 100 nM |
| H-TPQRPRRRKKRG-OH | > 100 nM |
| H-TPQRQRRRKKRG-OH | > 100 nM |
| H-TPQRSRRRKKRG-OH | > 100 nM |
| H-TPQRTRRRKKRG-OH | > 100 nM |
| H-TPQRVRRRKKRG-OH | > 100 nM |
| H-TPQRWRRRKKRG-OH | > 100 nM |
| H-TPQRYRRRKKRG-OH | > 100 nM |
| H-TPRAARRKKR-OH | > 100 nM |
| H-TPRAARRKKRG-OH | > 100 nM |
| H-TPRAARRKKRV-OH | > 100 nM |
| H-TPRARRRKKRA-NH2 | > 100 nM |
| H-TPRARRRKKRA-OH | > 100 nM |
| H-TPRARRRKKRD-OH | 56 nM |
| H-TPRARRRKKRE-NH2 | > 100 nM |
| H-TPRARRRKKRE-OH | > 100 nM |
| H-TPRARRRKKRF-NH2 [listing 1 of 2 here] | 38 nM |
| H-TPRARRRKKRF-OH | 38 nM |
| H-TPRARRRKKRG-NH2 | 57 nM |
| H-TPRARRRKKRG-OH | 57 nM |

| Molecule | Ki |
| --- | --- |
| H-TPRARRRKKRH-NH2 | > 100 nM |
| H-TPRARRRKKRH-OH | > 100 nM |
| H-TPRARRRKKRI-OH | 30 nM |
| H-TPRARRRKKRK-NH2 | > 100 nM |
| H-TPRARRRKKRK-OH | > 100 nM |
| H-TPRARRRKKRN-NH2 | 45 nM |
| H-TPRARRRKKRN-OH | 45 nM |
| H-TPRARRRKKRP-NH2 | > 100 nM |
| H-TPRARRRKKRP-OH | > 100 nM |
| H-TPRARRRKKRQ-NH2 | 47 nM |
| H-TPRARRRKKRQ-OH | 47 nM |
| H-TPRARRRKKRR-NH2 | > 100 nM |
| H-TPRARRRKKRR-OH | > 100 nM |
| H-TPRARRRKKRS-NH2 | > 100 nM |
| H-TPRARRRKKRS-OH | > 100 nM |
| H-TPRARRRKKRT-OH | 23 nM |
| H-TPRARRRKKRV-NH2 | 80 nM |
| H-TPRARRRKKRV-OH | 80 nM |
| H-TPRARRRKKRW-NH2 | 59 nM |
| H-TPRARRRKKRW-OH [listing 1 of 2 here] | 59 nM |
| H-TPRARRRKKRY-NH2 | 53 nM |
| H-TPRARRRKKRY-OH [listing 1 of 2 here] | 53 nM |
| H-TPRCRRRKKRG-NH2 | > 100 nM |
| H-TPRCRRRKKRG-OH | > 100 nM |
| H-TPRDRRRKKRG-NH2 | > 100 nM |
| H-TPRDRRRKKRG-OH | > 100 nM |

| Molecule | Ki |
| --- | --- |
| H-TPREAAAKKR-OH | > 100 nM |
| H-TPREAAAKKRG-OH | > 100 nM |
| H-TPREAAAKKRV-OH | > 100 nM |
| H-TPREAARKKR-OH | > 100 nM |
| H-TPREAARKKRG-OH | > 100 nM |
| H-TPREAARKKRV-OH | > 100 nM |
| H-TPREARRKKR-OH | > 100 nM |
| H-TPREARRKKRG-NH2 | > 100 nM |
| H-TPREARRKKRG-OH | > 100 nM |
| H-TPREARRKKRV-OH | > 100 nM |
| H-TPRERAAKKR-OH | > 100 nM |
| H-TPRERAAKKRG-OH | > 100 nM |
| H-TPRERAAKKRV-OH | > 100 nM |
| H-TPRERARKKR-OH | > 100 nM |
| H-TPRERARKKRG-NH2 | > 100 nM |
| H-TPRERARKKRG-OH | > 100 nM |
| H-TPRERARKKRV-OH | > 100 nM |
| H-TPRERRAAKR-OH | > 100 nM |
| H-TPRERRAAKRG-OH | > 100 nM |
| H-TPRERRAAKRV-OH | > 100 nM |
| H-TPRERRAKKR-OH | > 100 nM |
| H-TPRERRAKKRG-NH2 | > 100 nM |
| H-TPRERRAKKRG-OH | > 100 nM |
| H-TPRERRAKKRV-OH | > 100 nM |
| H-TPRERRRAARV-OH | > 100 nM |
| H-TPRERRRAKR-OH | > 100 nM |

| Molecule | Ki |
| --- | --- |
| H-TPRERRRAKRG-NH2 | > 100 nM |
| H-TPRERRRAKRG-OH | > 100 nM |
| H-TPRERRRAKRV-OH | > 100 nM |
| H-TPRERRRKAA-OH | > 100 nM |
| H-TPRERRRKAAG-OH | > 100 nM |
| H-TPRERRRKAAV-OH | > 100 nM |
| H-TPRERRRKAR-OH | > 100 nM |
| H-TPRERRRKARG-NH2 | > 100 nM |
| H-TPRERRRKARG-OH | > 100 nM |
| H-TPRERRRKARV-OH | > 100 nM |
| H-TPRERRRKKA-OH | > 100 nM |
| H-TPRERRRKKAG-NH2 | > 100 nM |
| H-TPRERRRKKAG-OH | > 100 nM |
| H-TPRERRRKKAV-OH | > 100 nM |
| H-TPRERRRKKR-OH | > 100 nM |
| H-TPRERRRKKRV-OH | > 100 nM |
| H-TPRFRRRKKRG-NH2 | > 100 nM |
| H-TPRFRRRKKRG-OH | > 100 nM |
| H-TPRGRRRKKRG-NH2 | > 100 nM |
| H-TPRGRRRKKRG-OH | > 100 nM |
| H-TPRHRRRKKRG-NH2 | > 100 nM |
| H-TPRHRRRKKRG-OH | > 100 nM |
| H-TPRIRRRKKRG-NH2 | > 100 nM |
| H-TPRIRRRKKRG-OH | > 100 nM |
| H-TPRLRRRKKRG-NH2 | > 100 nM |
| H-TPRLRRRKKRG-OH | > 100 nM |

| Molecule | Ki |
| --- | --- |
| H-TPRMRRRKKRG-NH2 | > 100 nM |
| H-TPRMRRRKKRG-OH | > 100 nM |
| H-TPRNRRRKKRG-NH2 | > 100 nM |
| H-TPRNRRRKKRG-OH | > 100 nM |
| H-TPRPRRRKKRG-NH2 | > 100 nM |
| H-TPRPRRRKKRG-OH | > 100 nM |
| H-TPRQRRRKKRG-NH2 | > 100 nM |
| H-TPRQRRRKKRG-OH | > 100 nM |
| H-TPRRRRRKKRG-NH2 | > 100 nM |
| H-TPRRRRRKKRG-OH | > 100 nM |
| H-TPRSRRRKKRG-NH2 | > 100 nM |
| H-TPRSRRRKKRG-OH | > 100 nM |
| H-TPRTRRRKKRG-NH2 | > 100 nM |
| H-TPRTRRRKKRG-OH | > 100 nM |
| H-TPRVRRRKKRG-NH2 | > 100 nM |
| H-TPRVRRRKKRG-OH | > 100 nM |
| H-TPRWRRRKKRG-NH2 | > 100 nM |
| H-TPRWRRRKKRG-OH | > 100 nM |
| H-TPRYRRRKKRG-NH2 | > 100 nM |
| H-TPRYRRRKKRG-OH | > 100 nM |

Test system: U-251
Assay: Inhibition of proprotein convertase-mediated anthrax protective antigen-83 processing in human U251 cells at 20 uM by Western blot
Format: cell-based
Details: Bacillus anthracis

| Molecule | Activity |
| --- | --- |
| H-TPRARRRKKRF-NH2 [listing 2 of 2 here] | Active |
| H-TPRARRRKKRF-OH | Active |
| H-TPRARRRKKRT-OH | Active |
| H-TPRARRRKKRW-NH2 | Active |
| H-TPRARRRKKRW-OH [listing 2 of 2 here] | Active |
| H-TPRARRRKKRY-NH2 | Active |
| H-TPRARRRKKRY-OH [listing 2 of 2 here] | Active |

From ChEMBL document CHEMBL1156471, “Targeting host cell furin proprotein convertases as a therapeutic strategy against bacterial toxins and viral pathogens” (J Biol Chem, 2007)
